According to patent US20260184693A1, “INHIBITORS OF SOLUTE CARRIER FAMILY 6A MEMBER 19 (SLC6A19) AND METHODS OF USE THEREOF” (Maze Therapeutics, Inc., priority 2022, published 2026):

Columns and labels:
human SLC6A19 [1] = biological target: T1, human SLC6A19 (Homo sapiens, UniProt Q695T7); assay: Example B-1: L-[3H]leucine uptake, liquid scintillation, in CHO cells with doxycycline-inducible expression of human SLC6A19 and TMEM27; type: cell-based; conditions: read-out: SLC6A19_Radioligand Uptake Assay IC50
T1 construct: expressed in transfected cells
T1 sequence (Q695T7 1-634): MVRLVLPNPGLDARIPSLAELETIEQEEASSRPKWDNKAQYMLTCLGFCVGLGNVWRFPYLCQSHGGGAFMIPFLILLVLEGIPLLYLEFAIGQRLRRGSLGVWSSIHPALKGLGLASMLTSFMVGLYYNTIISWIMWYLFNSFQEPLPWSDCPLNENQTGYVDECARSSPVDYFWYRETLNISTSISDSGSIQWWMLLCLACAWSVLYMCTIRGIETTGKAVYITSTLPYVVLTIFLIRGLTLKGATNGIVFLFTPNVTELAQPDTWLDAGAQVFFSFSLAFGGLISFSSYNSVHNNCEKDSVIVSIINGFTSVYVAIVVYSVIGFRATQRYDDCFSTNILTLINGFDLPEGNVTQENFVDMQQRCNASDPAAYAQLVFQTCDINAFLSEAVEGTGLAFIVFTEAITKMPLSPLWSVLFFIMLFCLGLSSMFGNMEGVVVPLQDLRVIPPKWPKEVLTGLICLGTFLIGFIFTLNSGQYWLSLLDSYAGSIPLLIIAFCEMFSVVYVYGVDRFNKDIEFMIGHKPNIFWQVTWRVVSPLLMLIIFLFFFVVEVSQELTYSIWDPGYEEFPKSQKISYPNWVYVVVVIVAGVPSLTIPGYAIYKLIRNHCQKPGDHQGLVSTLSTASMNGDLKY
T1 sequence (Q9HBJ8 15-222 partner): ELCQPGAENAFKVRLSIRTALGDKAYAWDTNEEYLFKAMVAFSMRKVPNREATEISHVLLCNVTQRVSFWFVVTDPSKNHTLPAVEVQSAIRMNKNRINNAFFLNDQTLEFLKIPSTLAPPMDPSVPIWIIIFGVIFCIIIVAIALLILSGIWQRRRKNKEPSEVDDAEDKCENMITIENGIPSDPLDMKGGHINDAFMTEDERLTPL
How it was run: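 CHO cells induced 18 h with 1 µg/mL doxycycline (uninduced wells as expression control), washed in HBSS, compound in 8-point 3-fold series (0.5% DMSO), then 1.6 mM final [3H]:cold leucine (1:15000) uptake for 20 min at 37 °C. Scintillation counting; activity normalized to positive control (0%) and DMSO (100%).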

human SLC6A19 [2] = biological target: T1, human SLC6A19; assay: Example B2: 13C6,15N-isoleucine uptake, RapidFire mass spectrometry, in CHO cells with doxycycline-inducible expression of human SLC6A19 and TMEM27; type: cell-based; conditions: read-out: SLC6A19_RapidFire Uptake Assay IC50
How it was run: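 Labelled isoleucine (13C6,15N; 2 mM added) was given 20 min at 37 °C, following a 20-min compound pre-treatment (10-point 2-fold series, duplicate). Cells were doxycycline-induced CHO co-expressing human SLC6A19 and TMEM27. Intracellular label was quantified by RapidFire-MS peak areas against a 13C-leucine standard.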

Compound: CC(=O)N1CCC[C@@H](N(C(=O)NCc2cc3cc(Cl)ccc3[nH]2)C(C)C)C1 [Compound 221, (R)-1-(1-acetylpiperidin-3-yl)-3-((5-chloro-1H-indol-2-yl)methyl)-1-isopropylurea]
- IC50 (human SLC6A19 [1]): 2410 nM
- IC50 (human SLC6A19 [2]): 4610 nM

Compound: CC(=O)N1CCC[C@@H](N(C(=O)NCc2cc3cc(Cl)ccc3[nH]2)C2CC2)C1 [Compound 222, (R)-1-(1-acetylpiperidin-3-yl)-3-((5-chloro-1H-indol-2-yl)methyl)-1-cyclopropylurea]
- IC50 (human SLC6A19 [1]): 193 nM
- IC50 (human SLC6A19 [2]): 63.3 nM

Compound: CCN(C(=O)NCc1cc2cc(Cl)ccc2[nH]1)[C@@H]1CCCN(C(=O)C2CCC2)C1 [Compound 232, (R)-3-((5-chloro-1H-indol-2-yl)methyl)-1-(1-(cyclobutanecarbonyl)piperidin-3-yl)-1-ethylurea]
- IC50 (human SLC6A19 [1]): 230 nM
- IC50 (human SLC6A19 [2]): 45.3 nM

Compound: CC(=O)N1CCC[C@@H](N(C)C(=O)NCc2cc3[nH]cc(C)c3cc2C)C1 [Compound 233, (R)-1-(1-acetylpiperidin-3-yl)-3-((3,5-dimethyl-1H-indol-6-yl)methyl)-1-methylurea]
- IC50 (human SLC6A19 [1]): 15600 nM
- IC50 (human SLC6A19 [2]): 9120 nM

Compound: Cc1conc1N1CCC[C@@H](N(C)C(=O)NCc2cc3cc(Cl)ccc3[nH]2)C1 [Compound 234, (R)-3-((5-chloro-1H-indol-2-yl)methyl)-1-methyl-1-(1-(4-methylisoxazol-3-yl)piperidin-3-yl)urea]
- IC50 (human SLC6A19 [1]): 367 nM
- IC50 (human SLC6A19 [2]): 255 nM

Compound: CC(=O)N1CCC[C@@H](N(C)C(=O)NCc2cc3[nH]cc(C)c3cc2Cl)C1 [Compound 235, (R)-1-(1-acetylpiperidin-3-yl)-3-((5-chloro-3-methyl-1H-indol-6-yl)methyl)-1-methylurea]
- IC50 (human SLC6A19 [1]): 673 nM
- IC50 (human SLC6A19 [2]): 893 nM

Compound: Cc1cc(C(=O)N2CCC[C@@H](N(C)C(=O)NCc3cc4cc(Cl)ccc4[nH]3)C2)nn1C [Compound 236, (R)-3-((5-chloro-1H-indol-2-yl)methyl)-1-(1-(1,5-dimethyl-1H-pyrazole-3-carbonyl)piperidin-3-yl)-1-methylurea]
- IC50 (human SLC6A19 [1]): 975 nM
- IC50 (human SLC6A19 [2]): 805 nM

Compound: CN(C(=O)NCc1cc2cc(Cl)ccc2[nH]1)[C@@H]1CCCN(C(=O)c2cccnc2)C1 [Compound 237, (R)-3-((5-chloro-1H-indol-2-yl)methyl)-1-methyl-1-(1-nicotinoylpiperidin-3-yl)urea]
- IC50 (human SLC6A19 [1]): 434 nM
- IC50 (human SLC6A19 [2]): 1210 nM

Compound: CN(C(=O)NCc1cc2cc(Cl)ccc2[nH]1)[C@@H]1CCCN(C(=O)c2cnoc2)C1 [Compound 238, (R)-3-((5-chloro-1H-indol-2-yl)methyl)-1-(1-(isoxazole-4-carbonyl)piperidin-3-yl)-1-methylurea]
- IC50 (human SLC6A19 [1]): 283 nM
- IC50 (human SLC6A19 [2]): 836 nM

Compound: CN(C(=O)NCc1cc2cc(Cl)ccc2[nH]1)[C@@H]1CCCN(C(=O)c2cnco2)C1 [Compound 239, (R)-3-((5-chloro-1H-indol-2-yl)methyl)-1-methyl-1-(1-(oxazole-5-carbonyl)piperidin-3-yl)urea]
- IC50 (human SLC6A19 [1]): 209 nM
- IC50 (human SLC6A19 [2]): 287 nM

Compound: CCn1ccc(C(=O)N2CCC[C@@H](N(C)C(=O)NCc3cc4cc(Cl)ccc4[nH]3)C2)n1 [Compound 240, (R)-3-((5-chloro-1H-indol-2-yl)methyl)-1-(1-(1-ethyl-1H-pyrazole-3-carbonyl)piperidin-3-yl)-1-methylurea]
- IC50 (human SLC6A19 [1]): 154 nM
- IC50 (human SLC6A19 [2]): 160 nM

Compound: CN(C(=O)NCc1cc2cc(Cl)ccc2[nH]1)[C@@H]1CCCN(C(=O)c2ccccn2)C1 [Compound 241, (R)-3-((5-chloro-1H-indol-2-yl)methyl)-1-methyl-1-(1-picolinoylpiperidin-3-yl)urea]
- IC50 (human SLC6A19 [1]): 387 nM
- IC50 (human SLC6A19 [2]): 626 nM

Compound: CC(=O)N1CCC[C@@H](N(C)C(=O)NCCc2ccc(F)c(-c3cc4ccccc4[nH]3)c2)C1 [Compound 244, (R)-1-(1-acetylpiperidin-3-yl)-3-(4-fluoro-3-(1H-indol-2-yl)phenethyl)-1-methylurea]
- IC50 (human SLC6A19 [1]): > 10000 nM
- IC50 (human SLC6A19 [2]): 7080 nM

Compound: CC(=O)N1CCC[C@@H](N(C)C(=O)NCCc2cc(-c3cc4ccccc4[nH]3)c(Cl)cc2F)C1 [Compound 245, (R)-1-(1-acetylpiperidin-3-yl)-3-(4-chloro-2-fluoro-5-(1H-indol-2-yl)phenethyl)-1-methylurea]
- IC50 (human SLC6A19 [1]): 459 nM
- IC50 (human SLC6A19 [2]): 151 nM
